Like-named read-outs stand apart in the source and are kept apart here.
Key:
[1] = set-up: method as in PMID 35758258, PMID 23222541; settings: phase I, healthy participants; cited from earlier work
[2] = target: T1, PAR4 (Homo sapiens, UniProt Q96RI0); assay: Human platelet activity assay, flow cytometry, γ-thrombin activation; type: cell-based; set-up: endogenous in cells; host or cells: washed human platelets from healthy volunteers; settings: human platelets, 100 nM γ-thrombin
T1 sequence (Q96RI0 18-385): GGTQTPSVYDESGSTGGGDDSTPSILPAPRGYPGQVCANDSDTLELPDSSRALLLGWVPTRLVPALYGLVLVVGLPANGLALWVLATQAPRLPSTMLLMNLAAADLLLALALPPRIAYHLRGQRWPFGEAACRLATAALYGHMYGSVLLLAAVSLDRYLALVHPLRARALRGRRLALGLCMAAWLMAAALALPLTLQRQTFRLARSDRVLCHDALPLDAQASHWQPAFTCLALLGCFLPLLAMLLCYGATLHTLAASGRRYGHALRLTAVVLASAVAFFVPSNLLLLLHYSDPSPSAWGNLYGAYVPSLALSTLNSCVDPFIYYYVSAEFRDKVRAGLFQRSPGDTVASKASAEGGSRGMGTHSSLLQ
Experimental: To test the antagonistic effect of the compounds on PAR4, a flow cytometry assay of human platelets was employed. Each compound was screened at 10 μM in human platelets using flow cytometry for GPIIbIIIa activation (PAC1) and P-selectin (CD62p) expression as previously described.[4] Activation of GPIIbIIIa allows interaction with divalent fibrinogen or multivalent von Willebrand factor, leading to platelet aggregation.[41] PAR4 stimulation also triggers α-granule secretion containing P-selectin.[5] […] Platelets were treated with each test compound or vehicle control DMSO before activating with γ-thrombin (100 nM) or PAR4 agonist peptide mimetic (200 μM, “PAR4-AP” AYPGKF) for 30 min. γ-thrombin activates PAR4 but not PAR1.[42]
Activation of washed human platelets was monitored by flow cytometry for the detection of PAC1 (GPIIbIIIa activation) and CD62p (P-selectin expression) binding as previously described.[4] Human platelets were obtained from healthy volunteers. The Vanderbilt University Internal Review Board approved these studies. Informed consent was obtained from all individuals prior to the blood draw. 10 mL of whole blood was collected into 0.32% Na citrate. Platelet-rich plasma was collected after room-temperature centrifugation at 1100 rpm for 15 min on a Thermo Forma 400 centrifuge (Thermo Fisher, Waltham, MA). 1/10 volume of acid citrate dextrose (ACD) buffer was added to the collected supernatant and incubated for 10 min. After centrifugation at 2400 rpm for 10 min, the platelet pellet was resuspended in 1 mL Tyrode’s buffer (“TBB”: 15 mM HEPES, 0.33 mM NaH2PO4, pH 6.4, 138 mM NaCl, 2.7 mM KCl, 1 mM MgCl2, 5.5 mM dextrose, 0.1% bovine serum albumin). Platelets were collected, counted on a Z1 Coulter Particle Counter (Beckman Coulter, Brea, CA), and diluted in TBB to 1.5 × 10^7 platelets/mL. 60 uL of platelets were aliquoted to each tube and preincubated with 40 μL of TBB with antibodies PAC1 FITC (Becton Dickinson, Franklin Lakes NJ) and P-selectin PE (Becton Dickinson) and either test compound antagonist or DMSO vehicle control for 20 min. Platelets were then activated with 100 nM γ-thrombin or other agonists for 30 min. Samples were then fixed by adding 100 μL of 2% paraformaldehyde. After 30 min, samples were diluted by adding 300 μL of phosphate-buffered saline (PBS) and stored at 4C. Data were collected on a three-laser BD LSRFortessa (Becton Dickinson) and analyzed with FlowJo software (FlowJo LLC, Ashland, OR). The mean fluorescence intensity (geometric) of PE and FITC was determined from 30,000 events after compensation correction. Data were normalized to vehicle (DMSO) controls.
Compounds were screened for inhibition activity against human PAR4 using 100 nM γ-thrombin or 200 μM PAR4-AP in a single-point assay (10 μM test compound).

[3] = target: T2, mouse PAR4 (Mus musculus, UniProt O88634); assay: Mouse platelet activity assay, flow cytometry, γ-thrombin activation; type: cell-based
T2 construct: washed mouse platelets were prepared by collecting cardiac puncture blood; endogenous in cells; host or cells: washed mouse platelets (cardiac puncture blood)
T2 sequence (O88634 17-396): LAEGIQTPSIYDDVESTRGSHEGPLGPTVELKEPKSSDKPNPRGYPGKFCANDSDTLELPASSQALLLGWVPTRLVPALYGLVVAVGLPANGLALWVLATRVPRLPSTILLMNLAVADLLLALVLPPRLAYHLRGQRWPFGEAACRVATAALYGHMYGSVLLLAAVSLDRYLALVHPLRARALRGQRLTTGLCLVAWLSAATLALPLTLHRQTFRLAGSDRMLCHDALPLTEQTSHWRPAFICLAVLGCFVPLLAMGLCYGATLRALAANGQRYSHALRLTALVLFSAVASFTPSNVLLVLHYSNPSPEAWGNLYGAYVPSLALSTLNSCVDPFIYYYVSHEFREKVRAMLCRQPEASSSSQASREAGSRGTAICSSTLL
Experimental: For mouse PAR4 activity, washed mouse platelets were prepared by collecting cardiac puncture blood with 200 μL of 20 U/mL heparin. Following centrifugation at 1000 rpm for 15 min, plasma and buffy coat were collected into a separate tube and spiked with apyrase and PGE1. After centrifuging at 1000 rpm for 8 min, the platelet-rich plasma was transferred to another tube and centrifuged at 2200 rpm for 10 min to pellet the platelets. Platelets were resuspended in TBB + apyrase + PGE1. Platelets were counted and diluted in TBB to a final concentration of 2 × 10^7 platelets/mL. 50 μL of platelets were aliquoted to each tube preincubated with 50 μL of TBB with antibodies for mouse GPIIbIIIa and P-selectin (Emfret, Eibelstadt Germany) and either test compound antagonist or DMSO control. Platelets were activated with 316 nM γ-thrombin for 30 min. Samples were then fixed with 100 μL of 2% paraformaldehyde for 20 min and diluted with 300 μL of PBS. Flow cytometry counts are measured as for human platelets on a three-laser BD LSRFortessa (Becton Dickinson) and analyzed with FloJo software.

[4] = Plasma protein binding, human plasma; type: in vitro ADME; settings: pH 7.4, read-out: human PPB fu
[5] = Microsomal stability, human liver microsomes; type: in vitro ADME
Experimental: The metabolic stability of each compound was investigated in mouse and human hepatic microsomes using substrate depletion methodology (% parent compound remaining). Prior to use, microsomes were removed from the freezer and allowed to thaw in a 37 °C water bath before being placed on wet ice.
In separate 96-well plates for each time point, a mixture of 0.1 M potassium phosphate-buffered (pH 7.4), 3 mM MgCl2, and 2.5 mg/mL microsomes were prewarmed at 37 °C for 5 min. Following the preincubation, a 1 μM test compound and 1 mM NADPH (for 3, 7, 15, 25, or 45 min time points) or buffer (for 0 min time point) were added to initiate the reaction. Under standard conditions, reactions were initiated with the addition of NADPH. To delineate the contribution of esterases, some experiments were initiated by the addition of substrate in the presence or absence of NADPH. Plates were incubated at 37 °C under ambient oxygenation. At the respective times, each plate’s reaction was precipitated by the addition of 2 volumes of ice-cold acetonitrile containing an internal standard (carbamazepine, 50 nM). The plates were centrifuged at 4000 rcf (4 °C) for 5 min. The resulting supernatants were transferred and diluted 1:1 (supernatant:water) into new 96-well plates in preparation for LC/MS/MS analysis. Each compound was assayed in triplicate within the same 96-well plate. The in vitro half-life (t1/2, min, eq 1), intrinsic clearance (CLint, mL/min/kg, eq 2), and subsequent predicted hepatic clearance (CLhep, mL/min/kg, eq 3) were determined employing the following equations [drawing 1] 1 [drawing 2] 2 [drawing 3] 3 The estimated percent contribution to metabolism was calculated from the percent substrate lost plots generated from metabolic incubations initiated with the addition of a test compound. Calculations compared the area under the curve (AUC) from conditions in the presence and absence of NADPH and buffer-only (control) conditions (eqs 4 and 5). AUC was calculated by using the trapezoidal method [drawing 4] 4 [drawing 5] 5
The analysis of in vitro samples from microsomal stability or plasma protein binding experiments was determined by employing LCMS/MS with an electrospray ionization-enabled 5500 Sciex instrument (Sciex, Foster City, CA) that was coupled to Agilent HPLC pumps and an autosampler (Agilent Technologies, Santa Clara, CA). Analytes were separated by gradient elution using a Kinetex C18 column (2.1 mm × 50 mm, 5 μm; Phenomenex, Torrance, CA) warmed to 35 °C. Mobile phase A was 0.5% formic acid in water, and mobile phase B was 0.5% formic acid in acetonitrile. […] The total run time was 2.8 min, and the HPLC flow rate was 0.5 mL/min. Mass spectral analyses were performed using multiple reaction monitoring, with transitions and voltages specific for each analyte using a Turbo Ion Spray source (source temperature of 500 °C) in positive ionization mode (5.0 kV spray voltage). Multiple reaction monitoring transitions were the following: 6110B8 (m/z 345.02 → 149.03, DP = 31; EP = 10; CE = 37 and CXP = 14), 6G3R (m/z 421.06 → 225.12, DP = 91; EP = 10; CE = 39 and CXP = 12), 5D22 (m/z 309.068 → 211.16, DP = 131; EP = 10; CE = 29 and CXP = 12), and carbamazepine (m/z 237 → 194, DP = 96; EP = 10; CE = 25 and CXP = 8). Data were analyzed using OS Sciex Analyst 1.5.1 (SCIEX, Framingham, MA), Graphpad Prism 10.1.0 (GraphPad Software, Boston, Massachusetts), and Microsoft Excel version 2310 (Microsoft, Redmond, WA).

[6] = GPIIbIIIa activation (PAC1), read-out: Human Platelets PAC1 IC50
[7] = P-selectin (CD62p), read-out: Human Platelets P-Sel IC50
[8] = mouse platelets, 316 nM γ-thrombin, GPIIbIIIa (JonA), read-out: Mouse Platelets JonA IC50
[9] = mouse platelets, 316 nM γ-thrombin, P-selectin, read-out: Mouse Platelets P-Sel IC50

Compound	safety and tolerability [1]	IC50 [2, 6] [nM]	IC50 [2, 7] [nM]	IC50 [3, 8] [nM]	IC50 [3, 9] [nM]	fraction unbound at 4 h [4]	CLint scaled at 1 µM ([5]; pH 7.4, human liver microsomes, in vitro, reaction started with NADPH) [mL/min/kg]	human CLhep ([5]; predicted hepatic clearance from human liver microsomes) [mL/min/kg]	IC50 ([3]; Table 4 summary, read-out: mouse PAR4 IC50) [nM]
COc1cc(OCc2csc(-c3ccc(C(=O)N(C)C)cc3)n2)c2cc(-c3cn4nc(OC)sc4n3)oc2c1 [BMS-986141]	safe and well tolerated								
Cc1nc(NC(=O)c2cc(-c3ccccc3)[nH]n2)n[nH]1 [Compound 8]		2790	2210						
Cc1nc(NC(=O)c2cc(C(=O)OC(C)(C)C)n(-c3ccccc3)n2)n[nH]1 [Compound 10]		1130	1160	11300	6160				
CC(C)c1cc(C(=O)Nc2n[nH]c(-c3c(F)cccc3F)n2)nn1C [Compound 11]		606	847	1090	1630				
Cn1nc(C(=O)Nc2n[nH]c(-c3ccccc3F)n2)cc1C1CC1 [Compound 13]		593	630	715	699				
Cn1nc(C(=O)Nc2n[nH]c(-c3ccccc3Cl)n2)cc1C1CC1 [Compound 14]		835	1040	1340	1290				
CCc1cc(C(=O)Nc2n[nH]c(-c3c(F)cccc3F)n2)nn1C [Compound 15]		495	580	672	807				
Cn1nc(C(=O)Nc2n[nH]c(-c3ccc(C#N)cc3)n2)cc1C1CC1 [Compound 16]		460	569	1140	1180				
Cc1n[nH]c(NC(=O)c2nn(-c3cccc(F)c3)c3c2CCC3)n1 [Compound 19]		923	1390	1190	1140				
Cc1n[nH]c(NC(=O)c2nn(-c3ccc(F)cc3)c3c2CCC3)n1 [Compound 21]		3250	4780						
O=C(Nc1n[nH]c(C2CC2)n1)c1nn(-c2ccccc2)c2c1CCC2 [Compound 24]		392	523	958	1130				
O=C(Nc1n[nH]c(C2CC2)n1)c1nn(-c2ccccc2)c2c1CCCC2 [Compound 26]		182	228	354	351				
O=C(Nc1n[nH]c(-c2cccc(C(F)(F)F)c2)n1)c1nn(-c2ccccc2)c2c1CCCC2 [Compound 27]		152	208	367	368				
O=C(Nc1n[nH]c(C2CC2)n1)c1nn(-c2cccc(F)c2)c2c1CCCC2 [Compound 28]		254	280	981	793				
O=C(Nc1n[nH]c(-c2ccccc2)n1)c1nn(-c2ccccc2)c2c1CCCC2 [Compound 29]		450	603	1110	1160				
N#Cc1ccc(-c2nc(NC(=O)c3nn(-c4ccccc4)c4c3CCCC4)n[nH]2)cc1 [Compound 30]		395	496	1840	1420				
O=C(Nc1n[nH]c(-c2cccc(OC(F)F)c2)n1)c1nn(-c2ccccc2)c2c1CCCC2 [Compound 33]				296	345	0.006	416	20	296

From article PMC11020070, “Discovery of Protease-Activated Receptor 4 (PAR4)-Tethered Ligand Antagonists Using Ultralarge Virtual Screening” (ACS Pharmacology & Translational Science, 2024)
